Reference: patent US20110039721A1, “METHOD FOR PREDICTION ABOUT CARCINOGENICITY OF SUBSTANCE IN RODENT” (Chemicals Evaluation and Research Institute, priority 2007, published 2011)

Columns and labels:
[1] = tested on: mRNA expressed from the genes (A) to (D) in rat liver; assay: Behavior of genes (mRNA expression level, oligo-DNA microarray) in rat liver after 28-day oral administration; assay type: in vivo
Procedure, shortened: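 Rat liver RNA after 28 days of daily gavage dosing (male F344, 5 weeks old, four per group). A change reaching 1.5-fold, or 1/1.5, against solvent control scores as significant; opposite direction versus another carcinogen scores as not significant.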

liver = settings: in vivo; cited from earlier work
rodent = settings: in vivo; cited from earlier work
[2] = (C), Unigene Rn.120914, defined direction +, rat liver, oral once daily 28 days
[3] = gene group (A), Unigene No. Rn.167075, mRNA vs vehicle control group
[4] = gene group (C), Unigene No. Rn.120914, mRNA vs vehicle control group

Cc1ccc(N)cc1N [TS004, 2,4-Diaminotoluene]
Behavior of gene caused by administration of chemical substance, Gene No. 4846 ([1]; (A), Unigene Rn.144554, defined direction +, rat liver, oral once daily 28 days): + | Behavior of gene caused by administration of chemical substance, Gene No. 4218 ([1]; (A), Unigene Rn.167075, defined direction +, rat liver, oral once daily 28 days, significant = 1.5 times or more or 1/1.5 or less of control): + | Behavior of gene caused by administration of chemical substance, Gene No. 2026 ([1]; (A), Unigene Rn.167075, defined direction −, rat liver, oral once daily 28 days): + | Behavior of gene caused by administration of chemical substance, Gene No. 6182 ([1]; (A), Unigene Rn.5834, defined direction +, rat liver, oral once daily 28 days): + | Behavior of gene caused by administration of chemical substance, Gene No. 5600 ([1]; (A), Unigene Rn.9836, defined direction +, rat liver, oral once daily 28 days): + | Behavior of gene caused by administration of chemical substance, Gene No. 1494 ([1]; (B), Unigene Rn.1430, defined direction −, rat liver, oral once daily 28 days): + | Behavior of gene caused by administration of chemical substance, Gene No. 2045 ([1]; (B), Unigene Rn.19329, defined direction +, rat liver, oral once daily 28 days): − | Behavior of gene caused by administration of chemical substance, Gene No. 2203 ([1]; (B), Unigene Rn.21240, defined direction +, rat liver, oral once daily 28 days): − | Behavior of gene caused by administration of chemical substance, Gene No. 533 ([1]; (C), Unigene Rn.106184, defined direction +, rat liver, oral once daily 28 days): − | Behavior of gene caused by administration of chemical substance, Gene No. 725 ([1]; (C), Unigene Rn.108075, defined direction −, rat liver, oral once daily 28 days): + | Behavior of gene caused by administration of chemical substance, Gene No. 1163 ([1]; (C), Unigene Rn.11766, defined direction +, rat liver, oral once daily 28 days): − | Behavior of gene caused by administration of chemical substance, Gene No. 4973 ([1]; (C), Unigene Rn.118529, defined direction −, rat liver, oral once daily 28 days): − | Behavior of gene caused by administration of chemical substance, Gene No. 4095 ([1]; (C), Unigene Rn.119024, defined direction −, rat liver, oral once daily 28 days): − | Behavior of gene caused by administration of chemical substance, Gene No. 1334 [1, 2]: − | Behavior of gene caused by administration of chemical substance, Gene No. 6620 [1, 2]: − | Behavior of gene caused by administration of chemical substance, Gene No. 6303 ([1]; (C), Unigene Rn.123063, defined direction −, rat liver, oral once daily 28 days): − | Behavior of gene caused by administration of chemical substance, Gene No. 5878 ([1]; (C), Unigene Rn.143213, defined direction −, rat liver, oral once daily 28 days): − | Behavior of gene caused by administration of chemical substance, Gene No. 1131 ([1]; (C), Unigene Rn.144946, defined direction −, rat liver, oral once daily 28 days): − | Behavior of gene caused by administration of chemical substance, Gene No. 1562 ([1]; (C), Unigene Rn.14744, defined direction −, rat liver, oral once daily 28 days): − | Behavior of gene caused by administration of chemical substance, Gene No. 1741 ([1]; (C), Unigene Rn.1647, defined direction −, rat liver, oral once daily 28 days): − | Behavior of gene caused by administration of chemical substance, Gene No. 893 ([1]; (C), Unigene Rn.164817, defined direction +, rat liver, oral once daily 28 days): − | Behavior of gene caused by administration of chemical substance, Gene No. 6026 ([1]; (C), Unigene Rn.167685, defined direction −, rat liver, oral once daily 28 days): − | Behavior of gene caused by administration of chemical substance, Gene No. 154 ([1]; (C), Unigene Rn.185941, defined direction −, rat liver, oral once daily 28 days): − | Behavior of gene caused by administration of chemical substance, Gene No. 1993 ([1]; (C), Unigene Rn.18728, defined direction −, rat liver, oral once daily 28 days): − | Behavior of gene caused by administration of chemical substance, Gene No. 813 ([1]; (C), Unigene Rn.201760, defined direction +, rat liver, oral once daily 28 days): − | Behavior of gene caused by administration of chemical substance, Gene No. 2494 ([1]; (C), Unigene Rn.23969, defined direction +, rat liver, oral once daily 28 days): − | Behavior of gene caused by administration of chemical substance, Gene No. 2546 ([1]; (C), Unigene Rn.24561, defined direction −, rat liver, oral once daily 28 days): − | Behavior of gene caused by administration of chemical substance, Gene No. 3776 ([1]; (C), Unigene Rn.43232, defined direction −, rat liver, oral once daily 28 days): − | Behavior of gene caused by administration of chemical substance, Gene No. 3929 ([1]; (C), Unigene Rn.4620, defined direction +, rat liver, oral once daily 28 days): − | Behavior of gene caused by administration of chemical substance, Gene No. 1119 ([1]; (C), Unigene Rn.9757, defined direction +, rat liver, oral once daily 28 days): − | Behavior of gene caused by administration of chemical substance, Gene No. 6742 ([1]; (C), Unigene Rn.9779, defined direction +, rat liver, oral once daily 28 days): − | Behavior of gene caused by administration of chemical substance, Gene No. 5634 ([1]; (C), Unigene Rn.9862, defined direction −, rat liver, oral once daily 28 days): − | Behavior of gene caused by administration of chemical substance, Gene No. 5726 ([1]; (D), Unigene Rn.9939, defined direction −, rat liver, oral once daily 28 days): − | Liver carcinogenicity (liver): Cr+ | Carcinogenicity (rodent): C+

Cc1c(N)cccc1N [TS005, 2,6-Diaminotoluene]
Behavior of gene caused by administration of chemical substance, Gene No. 4846 ([1]; gene group (A), Unigene No. Rn.144554, mRNA vs vehicle control group): − | Behavior of gene caused by administration of chemical substance, Gene No. 2026 [1, 3]: − | Behavior of gene caused by administration of chemical substance, Gene No. 4218 [1, 3]: − | Behavior of gene caused by administration of chemical substance, Gene No. 6182 ([1]; gene group (A), Unigene No. Rn.5834, mRNA vs vehicle control group): − | Behavior of gene caused by administration of chemical substance, Gene No. 5600 ([1]; gene group (A), Unigene No. Rn.9836, mRNA vs vehicle control group): − | Behavior of gene caused by administration of chemical substance, Gene No. 1494 ([1]; gene group (B), Unigene No. Rn.1430, mRNA vs vehicle control group): − | Behavior of gene caused by administration of chemical substance, Gene No. 2045 ([1]; gene group (B), Unigene No. Rn.19329, mRNA vs vehicle control group): − | Behavior of gene caused by administration of chemical substance, Gene No. 2203 ([1]; gene group (B), Unigene No. Rn.21240, mRNA vs vehicle control group): − | Behavior of gene caused by administration of chemical substance, Gene No. 533 ([1]; gene group (C), Unigene No. Rn.106184, mRNA vs vehicle control group): − | Behavior of gene caused by administration of chemical substance, Gene No. 725 ([1]; gene group (C), Unigene No. Rn.108075, mRNA vs vehicle control group): − | Behavior of gene caused by administration of chemical substance, Gene No. 1163 ([1]; gene group (C), Unigene No. Rn.11766, mRNA vs vehicle control group): − | Behavior of gene caused by administration of chemical substance, Gene No. 4973 ([1]; gene group (C), Unigene No. Rn.118529, mRNA vs vehicle control group): − | Behavior of gene caused by administration of chemical substance, Gene No. 4095 ([1]; gene group (C), Unigene No. Rn.119024, mRNA vs vehicle control group): − | Behavior of gene caused by administration of chemical substance, Gene No. 1334 [1, 4]: − | Behavior of gene caused by administration of chemical substance, Gene No. 6620 [1, 4]: − | Behavior of gene caused by administration of chemical substance, Gene No. 6303 ([1]; gene group (C), Unigene No. Rn.123063, mRNA vs vehicle control group): − | Behavior of gene caused by administration of chemical substance, Gene No. 5878 ([1]; gene group (C), Unigene No. Rn.143213, mRNA vs vehicle control group): − | Behavior of gene caused by administration of chemical substance, Gene No. 1131 ([1]; gene group (C), Unigene No. Rn.144946, mRNA vs vehicle control group): + | Behavior of gene caused by administration of chemical substance, Gene No. 1562 ([1]; gene group (C), Unigene No. Rn.14744, mRNA vs vehicle control group): − | Behavior of gene caused by administration of chemical substance, Gene No. 1741 ([1]; gene group (C), Unigene No. Rn.1647, mRNA vs vehicle control group): − | Behavior of gene caused by administration of chemical substance, Gene No. 893 ([1]; gene group (C), Unigene No. Rn.164817, mRNA vs vehicle control group): − | Behavior of gene caused by administration of chemical substance, Gene No. 6026 ([1]; gene group (C), Unigene No. Rn.167685, mRNA vs vehicle control group): − | Behavior of gene caused by administration of chemical substance, Gene No. 154 ([1]; gene group (C), Unigene No. Rn.185941, mRNA vs vehicle control group): − | Behavior of gene caused by administration of chemical substance, Gene No. 1993 ([1]; gene group (C), Unigene No. Rn.18728, mRNA vs vehicle control group): − | Behavior of gene caused by administration of chemical substance, Gene No. 813 ([1]; gene group (C), Unigene No. Rn.201760, mRNA vs vehicle control group): − | Behavior of gene caused by administration of chemical substance, Gene No. 2494 ([1]; gene group (C), Unigene No. Rn.23969, mRNA vs vehicle control group): − | Behavior of gene caused by administration of chemical substance, Gene No. 2546 ([1]; gene group (C), Unigene No. Rn.24561, mRNA vs vehicle control group): − | Behavior of gene caused by administration of chemical substance, Gene No. 3776 ([1]; gene group (C), Unigene No. Rn.43232, mRNA vs vehicle control group): − | Behavior of gene caused by administration of chemical substance, Gene No. 3929 ([1]; gene group (C), Unigene No. Rn.4620, mRNA vs vehicle control group): − | Behavior of gene caused by administration of chemical substance, Gene No. 1119 ([1]; gene group (C), Unigene No. Rn.9757, mRNA vs vehicle control group): − | Behavior of gene caused by administration of chemical substance, Gene No. 6742 ([1]; gene group (C), Unigene No. Rn.9779, mRNA vs vehicle control group): − | Behavior of gene caused by administration of chemical substance, Gene No. 5634 ([1]; gene group (C), Unigene No. Rn.9862, mRNA vs vehicle control group): − | Behavior of gene caused by administration of chemical substance, Gene No. 5726 ([1]; gene group (D), Unigene No. Rn.9939, mRNA vs vehicle control group): − | Liver carcinogenicity (liver): Cr− | Carcinogenicity (rodent): C−
